Source: patent US20100159449A1, “Continuous Assay Method for Measuring Receptor- and Ion Channel-Mediated Calcium Response and Subsequent Gene Expression” (NOACELL SCIENCE CO., LTD., priority 2006, published 2010)
Where a name gives a salt, the structure may show the parent alone. One block for each compound: values may come before it.

Experiments:
purine receptors [1] = experiment: aequorin-mediated calcium response (flash luminescence) in transfected CHO cells; format: cell-based; conditions: ATP 10^-3 to 10^-9 M, 30 seconds after addition, EnduRen or wildtype coelenterazine as substrate (FIG. 9)
Description: (§1) To begin with, plasmids (pcDNA MtAEQ, pcDNA Gα16, and pGL3 CRE-Renilla) were introduced into CHO cells. […] The results are graphed in FIGS. 3 and 4.
(§2) In detail, a CHO cell line (ATCC-deposited cells) that expresses purine receptors was seeded into 10 cm^2 Petri dishes at a 1.5×10^5 cells/ml cellular concentration.
(§3) The next day, 2.2 μg Gα16 (pcDNA Gα16), 3 μg aequorin-expressing plasmids (pcDNA MtAequorin), and 3 μg cAMP-responding Renilla luciferase plasmids (pGL3 CRE-Renilla) were transfected into each Petri dish employing 18 μL of FuGENE® 6 (by Roche Diagnostics).
(§4) The following day, 400 μL of trypsin/EDTA solution was added to the Petri dishes, and the cells were dissociated and suspended in 13 mL of DMEM/F12 FCS nutrient broth. […] Thereafter culturing was continued, and the results six hours later of measuring the activity of Renilla luciferase with the ARVO were diagrammed (FIG. 4). […] It will be understood that, with no induction of cAMP-mediated Renilla luciferase occurring, the purine receptors were Gq-coupled GPCRs.
Wildtype coelenterazine and, as a stable substrate, EnduRen™ were employed as luminescent substrates for enzymes, and the continuous-measurement regimes were compared. Plasmids were introduced into CHO cells. […]

purine receptors [2] = experiment: cAMP-responding (CRE) Renilla luciferase reporter assay in CHO cells expressing purine receptors; format: cell-based; conditions: ATP 10^-3 to 10^-9 M, six hours later, EnduRen substrate (FIG. 4)
Description: as §1, §2, §3, §4

[3] = target: serotonin receptor (5HT2A) (Homo sapiens, UniProt P28223); experiment: cAMP-responding (CRE) Renilla luciferase reporter assay in serotonin-receptor expressing CHO cells; format: cell-based; conditions: 5HT2A-expressing CHO cells; serotonin 2.5x10^-6 to 2.5x10^-12 M; culturing six hours; EnduRen substrate (FIG. 6)
Description: To begin with, plasmids (pcDNA MtAEQ, pcDNA Gα16, and pGL3 CRE-Renilla) were introduced into serotonin-receptor (5HT2A) expressing cells. Following an overnight culturing, EnduRen™ was added as a substrate, the combination was cultivated four hours, and from 2.5×10^−6 to 2.5×10^−12 M sample (serotonin) was added. For 30 seconds directly post-addition, the aequorin-mediated luminescence was continuously measured.
In detail, a serotonin receptor (5HT2A) was transfected into a CHO cell line (ATCC-deposited cells), and, in the same manner as in Embodiment 1, Gα16, aequorin-expressing plasmids, and cAMP-responding Renilla luciferase plasmids were transfected into the stably expressing cell line and the cell suspension solution was adjusted.
As a stable substrate, 30 μm EnduRen™ was added, and after four hours' culturing, 90 μL of the cell suspension solution was added into each well of a 96-well plate into which 10 μL serotonin hydrochloride as serotonin-receptor ligands had been added at 2.5×10^−6 to 2.5×10^−12 M concentration. Results of measuring the change in luminescent intensity for 30 seconds immediately following the suspension addition, employing the ARVO luminometer by Berthold Technologies GmbH, were diagrammed (FIG. 5). In FIG. 5, the vertical axis indicates the per-second luminescent intensity (count per second), and the horizontal axis, the measuring time (seconds). […]

[4] = target: dopamine receptors (D2RS) (Homo sapiens, UniProt P14416); conditions: D2RS-expressing CHO cells; dopamine 10^-3 to 10^-9 M; following day forskolin added, six hours culturing (FIG. 8)
Sequence of dopamine receptors (D2RS) (P14416 1-414 isoform P14416-2): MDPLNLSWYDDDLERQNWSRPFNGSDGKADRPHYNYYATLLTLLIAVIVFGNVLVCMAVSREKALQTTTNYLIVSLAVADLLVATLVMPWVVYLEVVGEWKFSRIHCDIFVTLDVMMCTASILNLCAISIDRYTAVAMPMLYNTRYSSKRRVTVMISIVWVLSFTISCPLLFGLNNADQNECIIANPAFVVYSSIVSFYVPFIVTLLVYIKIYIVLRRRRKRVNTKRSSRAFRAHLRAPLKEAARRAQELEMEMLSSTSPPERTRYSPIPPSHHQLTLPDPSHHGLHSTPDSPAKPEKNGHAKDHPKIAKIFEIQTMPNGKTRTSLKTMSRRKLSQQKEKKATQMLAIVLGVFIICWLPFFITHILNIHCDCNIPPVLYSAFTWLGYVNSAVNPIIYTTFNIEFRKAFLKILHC
Description: To begin with, plasmids were introduced into dopamine-receptor (D2RS) expressing cells. Following an overnight culturing, EnduRen™ was added as a substrate, the combination was cultivated four hours, and from 10^−3 to 10^−9 M sample (dopamine) was added.
In detail, dopamine receptors (D2RS) were transfected into a CHO cell line (ATCC-deposited cells), and, in the same manner as in Embodiment 1, Gα16, aequorin-expressing plasmids, and cAMP-responding Renilla luciferase plasmids were transfected into the stably expressing cell line and the cell suspension solution was adjusted.
The following day, 10 μL of 10^−5 M forskolin was added, and culturing was continued for six hours. The results of measuring the activity of Renilla luciferase were diagrammed (FIG. 8). In FIG. 8, the vertical axis indicates the per-second luminescent intensity (count per second), and the horizontal axis, the dopamine concentration.

Sequence of serotonin receptor (5HT2A) (P28223 whole entry, species assumed): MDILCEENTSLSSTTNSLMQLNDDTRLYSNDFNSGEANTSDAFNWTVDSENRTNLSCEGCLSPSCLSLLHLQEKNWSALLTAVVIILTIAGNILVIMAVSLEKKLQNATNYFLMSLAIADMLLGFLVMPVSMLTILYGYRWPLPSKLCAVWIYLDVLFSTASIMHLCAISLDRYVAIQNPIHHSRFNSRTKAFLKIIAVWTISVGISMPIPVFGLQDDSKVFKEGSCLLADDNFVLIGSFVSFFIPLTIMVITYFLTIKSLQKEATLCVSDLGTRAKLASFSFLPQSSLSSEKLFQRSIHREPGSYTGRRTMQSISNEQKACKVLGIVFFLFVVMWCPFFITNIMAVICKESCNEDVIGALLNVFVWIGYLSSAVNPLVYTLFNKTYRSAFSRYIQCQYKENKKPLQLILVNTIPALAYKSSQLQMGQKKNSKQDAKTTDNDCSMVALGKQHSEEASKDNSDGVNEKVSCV

SMILES: Nc1ncnc2c1ncn2[C@@H]1O[C@H](COP(=O)([O-])OP(=O)([O-])OP(=O)(O)O)[C@@H](O)[C@H]1O.O.[Na+].[Na+] [ATP, adenosine 5′-triphosphate disodium hydrate]
ATP-stimulated calcium response by aequorin luminescence (purine receptors [1]): calcium response can be measured
induction of cAMP-mediated Renilla luciferase (purine receptors [2]): no induction

SMILES: NCCc1c[nH]c2ccc(O)cc12 [serotonin, serotonin hydrochloride]
cAMP-mediated increase in (induction of) Renilla luciferase [3]: increase in (induction of) Renilla luciferase was confirmed

forskolin-stimulated activity of Renilla luciferase [4]: declined
SMILES: Cl.NCCc1ccc(O)c(O)c1 [dopamine, dopamine hydrochloride]
